Where two headings read alike, the source gives them in different places.
Tests used:
Format in all cases: in vivo
[1] = system: Tuta absoluta
Description: (§1) The objective of this bioassay is to evaluate the effect of test items on the mortality of adult insects and mites in a short/medium-term (0-24 hours) by topical application. Tests were conducted in plastic net bottles. A total of 10 replicates for each treatment (tests items and negative control) were used in each experiment and temporarily replicated 3 times along the week. (Figure 12)
(§2) Numbers of live and dead adult insects and mites were counted at 24 h post-treatment. Adult insects and mites were considered dead if no movement was apparent after probing with the tip of a fine brush under stereoscopic magnifying glass. Mortality percentage was calculated in treatment and control groups. If the mortality in negative control is above 20% the test was discarded.
(§3) Means of %M were compared using a one-way analysis of variance (ANOVA, p<0.05) and LSD-test as a post hoc test to verify significant differences between single treatments using Statgraphics Centurion XVII software. When nonnormality in the data was detected, an additional Kruskal-Wallis test was conducted, and Box-and-Whisker Plot (Median Notch) was presented.
(§4) The different compositions were tested by trials that were carried out on different relevant insect pests and acari including: Tuta absoluta, Bemisia tabaci, Myzus persicae, Frankliniella occidentalis and Tetranychus urticae. The bioassay type used was contact mortality (Leaf Disc Method) described in the example 4.
(§5) The main treatments included in the comparison of efficacy are: Group A: Individual solvents: Benzyl alcohol, ethanol, isopropanol, and water were applied directly (purity as in the label) diluted at 0.3% (3cc/L) in water without formulation. Group B: Vegetable matrix extracts were extracted with different solvents such as benzyl alcohol, ethanol, isopropanol, and water.

[2] = system: Bemisia tabaci
Description: as §1, §2, §3, §4, §5

[3] = system: Frankliniella occidentalis
Description: as §1, §2, §3, §4, §5

[4] = system: Myzus persicae
Description: as §1, §2, §3, §4, §5

[5] = system: Tetranychus urticae
Description: as §1, §2, §3, §4, §5

[6] = system: Tuta absoluta; assay: Antifeedant effects: feeding reduction
[7] = system: Tetranychus urticae; assay: Antifeedant effects: settling inhibition and oviposition inhibition; details: T. urticae
Description: The concept of antifeedant as a substance that acts on insect behaviour involves feeding reduction (FR), settling inhibition (SI) and oviposition Inhibition (IO). In some cases, settling inhibition is considered as indirect repellent effect. […] It is based on the preference of target adults for treated and non-treated host plants located in the same entomological cages (in plant assays). The experiments were conducted in bugdorm®-type net cages (Figure 13). Four similar host plants (two leaf stage) were transferred to a same pot (Figure 14). Two of the plants were sprayed with biopesticide compositions and the others with the control and dried for 30 minutes. Target adults were released at the site that was equidistant from the two plants. A total of 5 cages for each treatment (four plants each) and control were used in each experiment and replicated 3 times in different days. […] After 24 hours, the number of settled adults in treated and non-treated plants and the number of laid eggs were recorded on the upper and underside of each leaf. Number of adults and eggs were counted under a stereomicroscope. […] T= Settling of treated plants; C= Setting of control plants. […] Means of %Sl and %IO were analysed for significance by the non-parametric Wilcoxon signed-rank test (p < 0.05).

[8] = system: Frankliniella occidentalis; assay: Antifeedant effects: feeding reduction; details: F. occidentalis
[9] = system: Bemisia tabaci; assay: Antifeedant effects: settling inhibition
Description: (§6) The concept of antifeedant as a substance that acts on insect behaviour involves feeding reduction (FR), settling inhibition (SI) and oviposition Inhibition (IO). In some cases, settling inhibition is considered as indirect repellent effect. […] It is based on the preference of target adults for treated and non-treated host plants located in the same entomological cages (in plant assays). The experiments were conducted in bugdorm®-type net cages (Figure 13). Four similar host plants (two leaf stage) were transferred to a same pot (Figure 14). Two of the plants were sprayed with biopesticide compositions and the others with the control and dried for 30 minutes. Target adults were released at the site that was equidistant from the two plants. A total of 5 cages for each treatment (four plants each) and control were used in each experiment and replicated 3 times in different days. […] After 24 hours, the number of settled adults in treated and non-treated plants and the number of laid eggs were recorded on the upper and underside of each leaf. Number of adults and eggs were counted under a stereomicroscope. […] T= Settling of treated plants; C= Setting of control plants. Means of %Sl and %IO were analysed for significance by the non-parametric Wilcoxon signed-rank test (p < 0.05).

[10] = system: Myzus persicae; assay: Antifeedant effects: settling inhibition
Description: as §6

[11] = %FR feeding reduction index, at sublethal concentration 0.014 %
[12] = antifeedant/repellent, concentration under the lethal EC50
[13] = %SI settling inhibition index, at sublethal concentration 0.021 %

Structure (SMILES): COC(=O)C=Cc1ccccc1 [Methyl cinnamate]
- %M ([1]; Tuta absoluta, at sublethal concentration 0.021 %, Abbott's corrected): 17.5 ± 5.9%
- Sublethal concentration (%) ([1]; Tuta absoluta, contact mortality, concentration under the lethal EC50): 0.021%
- %M ([2]; Bemisia tabaci, at sublethal concentration 0.014 %, Abbott's corrected): 14.5 ± 9.8%
- Sublethal concentration (%) ([2]; Bemisia tabaci, contact mortality, concentration under the lethal EC50): 0.014%
- %M ([3]; Frankliniella occidentalis, at sublethal concentration 0.021 %, Abbott's corrected): 25.6 ± 4.6%
- Sublethal concentration (%) ([3]; Frankliniella occidentalis, contact mortality, concentration under the lethal EC50): 0.021%
- %M ([4]; Myzus persicae, at sublethal concentration 0.014 %, Abbott's corrected): 17.1 ± 4.7%
- Sublethal concentration (%) ([4]; Myzus persicae, contact mortality, concentration under the lethal EC50): 0.014%
- %M ([5]; Tetranychus urticae, at sublethal concentration 0.021 %, Abbott's corrected): 24.7 ± 6.9%
- Sublethal concentration (%) ([5]; Tetranychus urticae, contact mortality, concentration under the lethal EC50): 0.021%
- %SI/ %FR [6, 11]: 30.4 ± 5.7%
- Sublethal concentration (%) [6, 12]: 0.014%
- %SI/ %FR [7, 13]: 20.0 ± 4.6%
- Sublethal concentration (%) [7, 12]: 0.021%
- %SI/ %FR [8, 11]: 22.2 ± 2.1%
- Sublethal concentration (%) [8, 12]: 0.014%
- %SI/ %FR [9, 13]: 14.4 ± 3.6%
- Sublethal concentration (%) [9, 12]: 0.021%
- %SI/ %FR ([10]; %SI settling inhibition index, at sublethal concentration 0.014 %): 17.9 ± 6.7%
- Sublethal concentration (%) [10, 12]: 0.014%

Structure (SMILES): CC(C)=CCCC(C)=CC=O [Citral]
- %M ([1]; in vivo): 0.0 ±0.0%
- %M ([2]; in vivo): 20.7 ±7.3%
- %M ([3]; in vivo): 27.8 ± 3.6%
- %M ([4]; in vivo): 30.2 ±5.8%
- %M ([5]; in vivo): 16.9 ± 3.9%

— patent EP4652842A1, “BIOPESTICIDE COMPOSITION, PROCEDURE OF OBTAIN THEREOF, AND METHOD FOR CONTROLLING AND TREATING BROAD SPECTRUM OF PESTS, DISEASES AND WEEDS IN PLANTS” (priority 2024, dated 2025)
